Experimental findings from US20180110780A1, “AGENT FOR ALLEVIATING SIDE EFFECT OF ANTITUMOR DRUG” (TAIHO PHARMACEUTICAL CO., LTD., priority 2015, published 2018) are described below.

Molecules are shown by their SMILES.

This series relates to BALB/cA Jcl-nu mice transplanted with human lung cancer cell line NCI-H441. The experiment in a line: Toxicity alleviating effect against pemetrexed in tumor-bearing mouse. The note with it: deaths/animals during the test, pemetrexed 50 mg/kg/day, Compound 1 600 mg/kg/day.

Method: Cells of a human lung cancer cell line, NCI-H441, were suspended in a PBS containing 50% [sequence], and the suspension was transplanted subcutaneously into the right-side chest of each of 8-week old BALB/cA Jcl-nu mice (Crea-Japan, Inc.) in an amount of 5×10^6 cells/0.1 mL/body. At the time when the average tumor volume after grouping became more than 100 mm^3, the major axis and the minor axis of the tumor were measured, and grouping was performed such that there would be no fluctuations in the tumor volumes of the various groups (6 animals per group). Furthermore, the mice were maintained under conditions of low-folic acid feed breeding from the age of 5 weeks to the day of test completion.
Pemetrexed (manufactured by LC Laboratories, Inc.) was dissolved in physiological saline, and the solution was administered through the caudal vein on Day 1, which was the day after the day of grouping, and on Day 8, which was one week thereafter. Furthermore, Compound 1 was suspended in a 0.5% aqueous solution of hydroxypropylmethyl cellulose, and the suspension was orally administered once a day for 14 consecutive days from the day after the day of grouping. […]
After grouping, the body weights (BW) were measured twice a week, and the rate of bodyweight change (bodyweight change; BWC) was calculated by the following formula, the toxicity alleviating effect was evaluated. […]

`Nc1nc2[nH]cc(CCc3ccc(C(=O)N[C@@H](CCC(=O)O)C(=O)O)cc3)c2c(=O)[nH]1` [Pemetrexed]: the “No. of Death” value was 1/6. Moreover, where the note is “listed as pemetrexed”, the “No. of Death” value was “one death case out of six animals”.
